Where “and” joins values, the source holds several entries; their conditions need not be identical. Identical values can stand only once.
Assays:
[1] = target: T1, ALDH1A1 (Homo sapiens, UniProt P00352); assay: LC-HRMS analysis of isoenzyme activity in presence of probe; type: biochemical; settings: 1 h incubation, LC-HRMS
T1 construct: E. coli BL21 (DE3) were transformed with the full-length expression vector of each isoform; His-tag; made in house; host or cells: E. coli BL21 (DE3)
T1 sequence (P00352 1-501): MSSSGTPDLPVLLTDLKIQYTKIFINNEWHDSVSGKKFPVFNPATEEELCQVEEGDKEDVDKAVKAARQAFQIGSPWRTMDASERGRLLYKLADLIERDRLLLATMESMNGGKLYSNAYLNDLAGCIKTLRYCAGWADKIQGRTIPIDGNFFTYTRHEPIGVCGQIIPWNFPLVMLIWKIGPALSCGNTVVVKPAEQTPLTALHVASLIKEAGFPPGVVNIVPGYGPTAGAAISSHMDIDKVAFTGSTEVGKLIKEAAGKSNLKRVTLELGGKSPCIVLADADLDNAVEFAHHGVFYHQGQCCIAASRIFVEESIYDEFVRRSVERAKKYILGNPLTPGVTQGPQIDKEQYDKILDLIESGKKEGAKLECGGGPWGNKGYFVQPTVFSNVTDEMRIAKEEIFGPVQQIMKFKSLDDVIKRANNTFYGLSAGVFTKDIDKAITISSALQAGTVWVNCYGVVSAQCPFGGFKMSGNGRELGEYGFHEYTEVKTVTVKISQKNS
Method: (§1) These analyses were carried out by using UPLC-HRMS procedure with Vanquish UPLC system coupled to a Thermo Scientific Q-Exactive Plus, operating in negative electrospray ionization mode. The chromatographic separation was carried out using a Phenomenex Synergi 4 µ Polar-RP 80 A (150 × 2 mm) equipped with a Phenomenex Polar-RP (4 mm × 2 mm) security guard column. The mobile phase consisted of A: acetonitrile 0.1% formic acid and B: 0.1% formic acid. We used a linear elution gradient, starting from 80% of A to 5% A in 3 min, 3 min at 5% A, an equilibration of 4 min for a total run time of 10.00 min, at 300 µl/min flow rate. The autosampler temperature was set at 15 °C, the injection volume was 5 µl and column was maintained at 40 °C. The heated electrospray ionization source was used, with a spray voltage of […], with a capillary temperature of 300 °C, a heater temperature of 350 °C, a sheat gas flow of 45 arbitrary units (AU), an auxiliary gas flow of 10 AU and a sweep gas flow of 0 AU. During the Parallel Reaction Monitoring acquisition in negative ion mode, the instrument operated at 17,500 resolution in presence of the inclusion list (m/z = 596.20384 and m/z = 612.19875 for Probe 10 and Probe 10-COOH respectively; m/z = 534.18819 and m/z = 506.156888 for Probe 11 and Probe 11-COOH respectively) with an automatic gain control target of 2 × 10^5 charges and a maximum injection time of 100 ms. Before injecting the samples, the blanks in the list were analyzed and every biological sample was analyzed in duplicate. The biological samples analyzed were as follow: (1) Enzymatic assay Buffer; (2) Enzymatic assay Buffer + NAD^+; (3) Enzymatic assay Buffer + Probe 10 or Probe 11; (4) Enzymatic assay Buffer + ALDH1A1; (5) Enzymatic assay Buffer + ALDH1A2; (6) Enzymatic assay Buffer + ALDH1A3; (7) Enzymatic assay Buffer + ALDH1A1 + Probe 10 or Probe 11; (8) Enzymatic assay Buffer + ALDH1A2 + Probe 10 or Probe 11; (9) Enzymatic assay Buffer + ALDH1A3 + Probe 10 or Probe 11. All samples were diluted 1:1 with ACN, then 1:100 in ACN-Water 1:1 prior the LC-HRMS analysis.

[2] = target: T2, ALDH1A2 (Homo sapiens, UniProt O94788); assay: as above; type: biochemical; settings: 1 h incubation, LC-HRMS
T2 construct: E. coli BL21 (DE3) were transformed with the full-length expression vector of each isoform; His-tag; made in house; host or cells: E. coli BL21 (DE3)
T2 sequence (O94788 1-518): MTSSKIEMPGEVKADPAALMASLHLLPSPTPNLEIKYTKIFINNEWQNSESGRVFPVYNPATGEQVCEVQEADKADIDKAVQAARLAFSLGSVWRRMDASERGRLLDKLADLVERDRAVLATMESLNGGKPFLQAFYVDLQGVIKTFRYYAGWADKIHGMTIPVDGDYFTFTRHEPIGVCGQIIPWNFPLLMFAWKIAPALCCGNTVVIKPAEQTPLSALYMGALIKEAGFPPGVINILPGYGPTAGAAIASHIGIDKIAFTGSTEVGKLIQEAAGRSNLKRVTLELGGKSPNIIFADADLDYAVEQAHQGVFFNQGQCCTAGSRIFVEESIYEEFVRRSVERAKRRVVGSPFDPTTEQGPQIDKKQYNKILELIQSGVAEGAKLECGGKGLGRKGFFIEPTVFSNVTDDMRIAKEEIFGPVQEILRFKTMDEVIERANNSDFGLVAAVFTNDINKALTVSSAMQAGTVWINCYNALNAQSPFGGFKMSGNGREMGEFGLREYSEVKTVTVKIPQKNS
Method: as §1

[3] = target: T3, ALDH1A3 (Homo sapiens, UniProt P47895); assay: as above; type: biochemical; settings: for oxidation of probe to carboxylic derivative / substrate behaviour: 1 h incubation, LC-HRMS
T3 construct: E. coli BL21 (DE3) were transformed with the full-length expression vector of each isoform; His-tag; made in house; host or cells: E. coli BL21 (DE3)
T3 sequence (P47895 1-512): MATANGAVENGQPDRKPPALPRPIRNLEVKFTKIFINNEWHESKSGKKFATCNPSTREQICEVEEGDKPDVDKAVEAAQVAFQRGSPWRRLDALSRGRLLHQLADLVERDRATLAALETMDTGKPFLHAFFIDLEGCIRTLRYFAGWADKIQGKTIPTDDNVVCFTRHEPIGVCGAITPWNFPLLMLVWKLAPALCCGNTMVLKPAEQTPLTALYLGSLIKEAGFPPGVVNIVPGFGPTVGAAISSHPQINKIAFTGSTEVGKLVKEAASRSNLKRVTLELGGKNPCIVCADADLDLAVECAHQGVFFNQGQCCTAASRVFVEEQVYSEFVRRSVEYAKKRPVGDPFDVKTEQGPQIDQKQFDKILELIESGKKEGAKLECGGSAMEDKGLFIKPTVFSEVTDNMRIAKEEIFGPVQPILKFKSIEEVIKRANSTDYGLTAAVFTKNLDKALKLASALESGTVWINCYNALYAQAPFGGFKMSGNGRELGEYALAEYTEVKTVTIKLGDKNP
Method: as §1

[4] = test system: GL261 murine glioma cells; assay: Imaging flow cytometry of living GL261 cells incubated with probe; type: cell-based; settings: 1 h incubation
Method: GL261 cells were incubated, with probe 10 or 11, for 1 h and after three rinses in PBS, cells were detached by trypsin treatment and visualized without fixation through a rMarkII flow cytometer (Amnis, Luminex Corporation, Austin, TX, USA) as previously described. Data were collected using Inspire software (Amnis, version 2.0) with the following parameters: 10,000 images per sample, 488 nm laser (25 and 100 mW) to excite the probes, 785 nm laser used to provide a side scatter signal and measurement of SpeedBeads (Amnis, Luminex Corporation, Austin, TX, USA), 830 nm laser used for internal bead calibration of core flow speed and focus, ×60 objective, in low-speed flow. Data were further analyzed by Ideas software (Amnis, version 6.1).

Compound	oxidation of probe to carboxylic derivative / substrate behaviour [1]	oxidation of probe to carboxylic derivative / substrate behaviour [2]	oxidation of probe to carboxylic derivative / substrate behaviour [3]	AREA TIC of Probe 10 ([3]; ALDH1A3, 1 h)	entry into and labelling of GL261 cells in vitro [4]
COc1cc(/C=C/C(O)=C/C(=O)/C=C/c2ccc(OCc3cn(CCOc4ccc(C=O)cc4)nn3)c(OC)c2)ccc1O [Probe 10]	fully metabolized	in part	no oxidation could be detected	17952906 and 17991269 and 13247597 and 14014206	able to enter and label the murine glioblastoma cells
CCOC(=O)Cn1cc(COc2ccc(/C=C/C(=O)/C=C(O)/C=C/c3ccc(O)c(OC)c3)cc2OC)nn1 [Probe 11]	has not been shown to be a substrate	has not been shown to be a substrate	has not been shown to be a substrate	–	able to enter and label the murine glioblastoma cells

Source: PMC9437101, “Curcumin-based-fluorescent probes targeting ALDH1A3 as a promising tool for glioblastoma precision surgery and early diagnosis” (Communications Biology, 2022)
